Results: patent publication US12059429B2, “Hornerin: a novel non-VEGF mediated angiogenic protein expressed in both human and mouse angiogenic endothelial cells and human pancreatic cancer cells” (University of Virginia Patent Foundation, priority 2018, dated 2024)

Experiments:
hornerin [1] = test: Immunoblot of hornerin in HUVECs treated with growth factors; assay type: cell-based, human; conditions: 24 hours treatment; growth factors at published B-max concentrations, EGF at increasing concentrations
Description: HUVECs were cultured in 10 cm dishes for 24 hours prior to a change to media containing VEGF (at B-max concentration), TCM, or VC. After 24 hours treatment, the cells were washed with DPBST two times and lysed with radioimmunoprecipitation assay (RIPA) buffer (Thermo Scientific). Lysate protein concentrations were measured by the bicinchoninic acid assay (Pierce, Waltham, MA, USA) and equivalent amounts of protein were loaded into precast 4-15% tris-glycine eXtended (TGX) polyacrylamide gels (Bio-Rad, Hercules, CA, USA). The proteins were resolved by electrophoresis and transferred to nitrocellulose membranes using the iBlot system (Invitrogen, Carlsbad, CA, USA). The membranes were then washed in Tris-buffered saline+1% Tween-20 (TBST), blocked for 30 minutes in TBST+2% milk solution, and incubated overnight at 4° C. with primary antibodies anti-hornerin (Abcam, Cambridge, UK, ab78909; (1:1000)) and anti-HSP90 (Cell Signaling Technology, Danvers, MA, USA, 4877; (1:1000)). The following day the membranes were washed and subsequently incubated with the secondary antibodies anti-goat HRP (R&D Systems, Minneapolis, MN, USA, HAF109; 1:5000) and anti-rabbit HRP (GE Healthcare, NA934V; 1:5000) for 45 minutes at RT. […]
Major constituents of TCM were determined using a Human Angiogenesis Antibody Array (Affymetrix, Santa Clara, CA, USA) per manufacturer's instructions. […]

hornerin [2] = test: Immunoblot of hornerin in L3.6pl cells treated with EGF; assay type: cell-based, human; conditions: EGF 1, 10 or 100 ng/mL, 48 hours
hornerin [3] = test: Immunoblot of hornerin in human keratinocytes treated with EGF; assay type: cell-based; conditions: 48 hours
TCM-treated HUVECs = test: Phage-based ELISA on treated HUVECs with two-way ANOVA; assay type: binding, human
Description: HUVEC were plated in MaxiSorp 96-well plates (NUNC, Rochester, NY, USA) and cultured for 24 hours, at which time the cells were treated with media containing VEGF (VEGFCM) at B-max concentration (Igarashi et al., 2003) or TCM for an additional 24 h. ELISA was initiated by adding 1010 isolated phage to each well for a 1 hour incubation. After three washes with DPBS+0.1% Tween-20 (DPBST), the cells were incubated with horse radish peroxidase (HRP)-tagged anti-M13 antibody (GE Healthcare, Little Chalfont, UK, 27-9421-01; (1:3000)) for 30 min. The plates were washed three additional times (DBPST) then developed with 200 μL 3,3′,5,5′-Tetramethylbenzidine (Sigma) for 10 minutes. The A650 was measured on a microplate reader (Molecular Devices, Sunnyvale, CA, USA).
Absorbance values were corrected by comparison to unmodified control KE phage. […]
As VEGF is highly abundant in the pancreatic tumor milieu, clones were further segregated based on their ability to bind to VEGF-treated HUVECs vs. tumor conditioned media (TCM)-treated HUVECs. […] Enzyme-linked immunoabsorbent assay (ELISA) results were analyzed by two-way analysis of variance (ANOVA) to find clones that consistently bound to HUVECs treated with TCM, but not vehicle control (VC) or VEGF-supplemented control media (VEGFCM; FIGS. 2A and 2B). […]

hornerin [4] = molecular target: T1, hornerin (Homo sapiens, UniProt Q86YZ3); test: Phage display-based functional proteomics (pulldown, MS/MS, anti-hornerin immunoblot); assay type: binding; conditions: tandem mass spectroscopy of pulldown lysates, confirmed by immunoblot
T1 construct: A unique band in the PTEM 9 lane that was not present in the control sample corresponded to the predicted molecular weight of hornerin; endogenous in cells
T1 sequence (Q86YZ3 whole entry): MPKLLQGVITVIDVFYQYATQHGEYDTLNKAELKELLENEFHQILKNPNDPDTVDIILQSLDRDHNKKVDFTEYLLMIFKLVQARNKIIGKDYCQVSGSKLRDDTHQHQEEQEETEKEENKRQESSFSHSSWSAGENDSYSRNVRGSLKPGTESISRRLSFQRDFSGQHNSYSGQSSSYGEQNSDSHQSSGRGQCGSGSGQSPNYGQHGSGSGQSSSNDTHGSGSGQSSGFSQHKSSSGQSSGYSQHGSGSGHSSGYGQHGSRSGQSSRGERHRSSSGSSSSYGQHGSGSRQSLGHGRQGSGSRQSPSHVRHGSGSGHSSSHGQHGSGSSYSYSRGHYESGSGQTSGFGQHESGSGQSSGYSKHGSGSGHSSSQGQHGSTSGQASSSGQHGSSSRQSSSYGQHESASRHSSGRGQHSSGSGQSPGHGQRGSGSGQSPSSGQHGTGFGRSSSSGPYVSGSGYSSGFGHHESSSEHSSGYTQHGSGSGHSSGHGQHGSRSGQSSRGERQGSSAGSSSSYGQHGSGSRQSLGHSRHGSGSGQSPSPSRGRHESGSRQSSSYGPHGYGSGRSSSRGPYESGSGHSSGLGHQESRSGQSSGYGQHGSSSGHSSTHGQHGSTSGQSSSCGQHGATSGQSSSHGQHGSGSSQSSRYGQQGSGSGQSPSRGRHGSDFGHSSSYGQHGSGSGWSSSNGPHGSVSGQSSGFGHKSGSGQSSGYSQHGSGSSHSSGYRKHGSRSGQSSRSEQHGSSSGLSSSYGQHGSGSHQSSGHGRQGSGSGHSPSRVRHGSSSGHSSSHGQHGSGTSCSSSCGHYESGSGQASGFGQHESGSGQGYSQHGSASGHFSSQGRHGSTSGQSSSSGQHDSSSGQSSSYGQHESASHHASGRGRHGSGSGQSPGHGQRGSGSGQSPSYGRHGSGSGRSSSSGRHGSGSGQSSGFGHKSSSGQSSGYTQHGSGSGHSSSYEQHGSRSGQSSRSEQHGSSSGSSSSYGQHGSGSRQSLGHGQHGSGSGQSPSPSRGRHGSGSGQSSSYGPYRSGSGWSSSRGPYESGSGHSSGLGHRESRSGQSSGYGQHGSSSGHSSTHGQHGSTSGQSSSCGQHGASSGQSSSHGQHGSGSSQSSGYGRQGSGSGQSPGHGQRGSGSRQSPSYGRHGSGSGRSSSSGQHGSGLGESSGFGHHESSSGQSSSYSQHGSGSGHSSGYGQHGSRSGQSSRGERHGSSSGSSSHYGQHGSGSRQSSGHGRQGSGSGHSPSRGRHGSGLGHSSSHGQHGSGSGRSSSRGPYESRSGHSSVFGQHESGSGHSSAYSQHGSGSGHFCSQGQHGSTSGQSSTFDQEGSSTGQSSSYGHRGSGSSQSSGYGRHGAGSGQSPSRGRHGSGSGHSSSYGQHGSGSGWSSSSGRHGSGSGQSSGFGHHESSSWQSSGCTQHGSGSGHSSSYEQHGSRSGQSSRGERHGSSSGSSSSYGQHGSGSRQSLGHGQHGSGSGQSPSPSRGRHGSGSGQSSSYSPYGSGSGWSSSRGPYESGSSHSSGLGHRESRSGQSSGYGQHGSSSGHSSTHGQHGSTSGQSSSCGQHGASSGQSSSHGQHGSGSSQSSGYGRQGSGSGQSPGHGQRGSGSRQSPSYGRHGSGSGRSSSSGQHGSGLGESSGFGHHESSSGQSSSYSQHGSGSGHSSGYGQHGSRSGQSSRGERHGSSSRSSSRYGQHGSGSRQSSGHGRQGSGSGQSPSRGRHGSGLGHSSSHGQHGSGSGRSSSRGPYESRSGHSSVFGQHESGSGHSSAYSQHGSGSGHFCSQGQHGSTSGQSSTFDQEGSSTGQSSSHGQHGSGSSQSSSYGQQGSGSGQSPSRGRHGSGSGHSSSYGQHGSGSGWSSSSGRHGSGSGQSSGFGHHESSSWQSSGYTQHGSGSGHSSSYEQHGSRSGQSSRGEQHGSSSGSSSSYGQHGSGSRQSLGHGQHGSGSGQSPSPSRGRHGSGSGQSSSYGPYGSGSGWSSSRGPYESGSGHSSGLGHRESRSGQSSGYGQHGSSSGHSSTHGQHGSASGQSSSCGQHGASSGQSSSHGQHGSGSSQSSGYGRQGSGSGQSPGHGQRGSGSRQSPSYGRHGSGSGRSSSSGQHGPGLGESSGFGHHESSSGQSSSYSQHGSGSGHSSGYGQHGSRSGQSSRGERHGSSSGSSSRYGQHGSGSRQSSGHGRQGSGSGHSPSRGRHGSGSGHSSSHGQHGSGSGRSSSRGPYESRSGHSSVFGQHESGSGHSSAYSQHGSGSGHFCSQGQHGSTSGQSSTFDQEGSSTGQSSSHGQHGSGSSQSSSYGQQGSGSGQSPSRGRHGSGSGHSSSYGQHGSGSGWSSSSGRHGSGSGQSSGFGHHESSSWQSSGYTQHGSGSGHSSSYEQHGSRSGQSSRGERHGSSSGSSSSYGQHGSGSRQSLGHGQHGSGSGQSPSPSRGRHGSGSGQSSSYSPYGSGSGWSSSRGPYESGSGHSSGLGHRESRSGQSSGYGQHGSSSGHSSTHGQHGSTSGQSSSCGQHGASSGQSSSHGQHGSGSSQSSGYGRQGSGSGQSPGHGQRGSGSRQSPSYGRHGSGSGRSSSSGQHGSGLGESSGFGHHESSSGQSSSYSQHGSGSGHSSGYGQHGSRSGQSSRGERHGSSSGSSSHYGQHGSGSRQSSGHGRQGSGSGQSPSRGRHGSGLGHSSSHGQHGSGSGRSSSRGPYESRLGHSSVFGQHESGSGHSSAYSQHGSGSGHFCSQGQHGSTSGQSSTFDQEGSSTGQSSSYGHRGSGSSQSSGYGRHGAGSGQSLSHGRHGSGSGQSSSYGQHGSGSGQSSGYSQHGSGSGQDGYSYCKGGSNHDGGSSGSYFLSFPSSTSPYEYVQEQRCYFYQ
Description: The gel piece was transferred to a siliconized tube and washed and destained in 200 μL 50% methanol overnight. The gel pieces were dehydrated in acetonitrile, rehydrated in 30 μL of 10 mM dithiolthreitol in 0.1M ammonium bicarbonate, and reduced at room temperature for 0.5 hours. The DTT solution was removed and the sample alkylated in 30 μL 50 mM iodoacetamide in 0.1M ammonium bicarbonate at room temperature for 0.5 hours. The reagent was removed and the gel pieces dehydrated in 100 μL acetonitrile. The acetonitrile was removed and the gel pieces rehydrated in 100 μL 0.1M ammonium bicarbonate. The pieces were dehydrated in 100 μL acetonitrile, the acetonitrile removed and the pieces completely dried by vacuum centrifugation. […]
The LC-MS system consisted of a Thermo Electron Velos Orbitrap ETD mass spectrometer system with a Protana nanospray ion source interfaced to a self-packed 8 cm×75 μm id Phenomenex Jupiter 10 μm C18 reversed-phase capillary column. […] The digest was analyzed using the double play capability of the instrument acquiring full scan mass spectra (Orbitrap, 60 K resolution) to determine peptide molecular weights followed by product ion spectra (ion trap) to determine amino-acid sequence in sequential scans. […]
The data were analyzed by database searching using the Sequest search algorithm within Proteome Discoverer (v1.2) against IPI Human (v3.78, 86,702 entries). […]

| Substance | hornerin expression in HUVECs (hornerin [1]) | hornerin expression in L3.6pl cells (hornerin [2]) | hornerin expression in keratinocytes (hornerin [3]) | specificity (fold over vehicle control) among clones binding selectively to TCM-treated HUVECs (TCM-treated HUVECs) | binding partner identified (hornerin [4]) |
| --- | --- | --- | --- | --- | --- |
| EGF: recombinant human EGF (PeproTech) | increased | concentration-dependent increase in expression | more modest response | – | – |
| SLLNRMP (listed as Homo sapiens) [PTEM 9] | – | – | – | highest average specificity | hornerin as the candidate protein |
